Test results: patent US20220306695A1, “COMPSTATIN ANALOGUES AND THEIR MEDICAL USES” (priority 2019, published 2022)
Starred links: 1 amine or outer side, 2 acyl side, 3 side chain; linkers in the order of their positions; H or OH if unused. Positions of bridges follow the written chain, without caps; N, C: chain ends. Non-standard residues stand in square brackets, D forms with d. Residues, ends and D or L forms follow the SMILES beside them. Groups on a side chain read outwards from the residue. *: point of attachment. X1 = O=C(O)CCCCCCCCCCCCCCC(=O)N1CCN(CC(=O)*)CC1; Trp(1-Me) = Cn1cc(C[C@H](N)C(=O)O)c2ccccc21; Abu(4-yl) = O=C([C@H](CC[*:3])N[*:1])[*:2]; C18 diacid = O=C(O)CCCCCCCCCCCCCCCCC(=O)*; C16 diacid = O=C(O)CCCCCCCCCCCCCCC(=O)*; γGlu = O=C(O)[C@H](CCC(=O)[*:2])N[*:1]; AEEA = NCCOCCOCC(=O)O; Sar = CNCC(=O)O

tested on: classical complement pathway; assay: In vitro haemolysis assay (inhibition of classical complement pathway); type: cell-based, human; conditions: Table 2; human serum, sensitized sheep red blood cells; read-out: CP hemolysis IC50
Summary of the method: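 Serially diluted compound (9 points) was preincubated 15 min at room temperature with diluted human serum, titrated per batch to give 70-90% maximal haemolysis, in Tris/casein buffer pH 7.4 with Mg2+/Ca2+. Antibody-sensitized sheep erythrocytes were then added for 30 min at 37° C, and the reaction was stopped with EDTA. Haemolysis was read at A405, with IC50 from 4PL fit.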

SMILES	IC50 [µM]
CC[C@H](C)[C@H](NC(C)=O)C(=O)N[C@H]1CSSC[C@@H](C(=O)N[C@H](C(N)=O)[C@@H](C)O)NC(=O)[C@H](CCCNC(=N)N)NC(=O)[C@H](Cc2c[nH]cn2)NC(=O)[C@H](C)NC(=O)CNC(=O)[C@H](Cc2c[nH]c3ccccc23)NC(=O)[C@H](CC(=O)O)NC(=O)[C@H](CCC(N)=O)NC(=O)[C@H](Cc2c[nH]c3ccccc23)NC(=O)[C@H](C(C)C)NC1=O [Compound 4W9A, reference compound]	0.25

same assay, conditions: Table 3; cells that print μM; read-out: IC50, in vitro analysis of inhibition of hemolysis

SMILES	IC50 [µM]
CC[C@H](C)[C@H](NC(C)=O)C(=O)N[C@H]1CSSC[C@@H](C(=O)N[C@H](C(N)=O)[C@@H](C)O)NC(=O)[C@H](CCCNC(=N)N)NC(=O)[C@H](Cc2c[nH]cn2)NC(=O)[C@H](Cc2c[nH]cn2)NC(=O)CNC(=O)[C@H](Cc2c[nH]c3ccccc23)NC(=O)[C@H](CC(=O)O)NC(=O)[C@H](CCC(N)=O)NC(=O)[C@H](C(C)C)NC(=O)[C@H](C(C)C)NC1=O [Ac-compstatin, reference compound]	> 5

same assay, conditions: Table 3; human serum, sensitized sheep red blood cells; read-out: IC50[nM], in vitro analysis of inhibition of hemolysis

SMILES	IC50 [µM]
CC[C@H](C)[C@H](NC(C)=O)C(=O)N[C@H]1CSSC[C@@H](C(=O)N[C@H](C(=O)N[C@@H](CCC(=O)O)C(=O)NCC(=O)N[C@@H](CCCCNC(=O)COCCOCCNC(=O)COCCOCCNC(=O)CN2CCN(C(=O)CCCCCCCCCCCCCCC(=O)O)CC2)C(N)=O)[C@@H](C)O)NC(=O)[C@H](CCCNC(=N)N)NC(=O)[C@H](Cc2c[nH]cn2)NC(=O)[C@H](CCC(=O)O)NC(=O)CNC(=O)[C@H](Cc2c[nH]c3ccccc23)NC(=O)[C@H](CC(=O)O)NC(=O)[C@H](CCC(N)=O)NC(=O)[C@H](Cc2c[nH]c3ccccc23)NC(=O)[C@H]([C@@H](C)CC)NC1=O [Compound 95] (Ac-ICIWQDWGEHRCTEGK([AEEA-AEEA-X1])-NH2; disulfide 2-12)	< 0.5
CC[C@H](C)[C@H](NC(=O)[C@H](C)NC(=O)[C@H](CO)NC(=O)CNC(=O)[C@H](CCC(=O)O)NC(C)=O)C(=O)N[C@H]1CSSC[C@@H](C(=O)N[C@H](C(N)=O)[C@@H](C)O)NC(=O)[C@H](CCCNC(=N)N)NC(=O)[C@H](Cc2c[nH]cn2)NC(=O)[C@H](CCC(=O)O)NC(=O)CNC(=O)[C@H](Cc2c[nH]c3ccccc23)NC(=O)[C@H](CC(=O)O)NC(=O)[C@H](CCC(N)=O)NC(=O)[C@H](Cc2c[nH]c3ccccc23)NC(=O)[C@H]([C@@H](C)CC)NC1=O [Compound 29] (Ac-EGSAICIWQDWGEHRCT-NH2; disulfide 6-16)	< 0.1
CC[C@H](C)[C@H](NC(C)=O)C(=O)N[C@H]1CSSC[C@@H](C(=O)N[C@H](C(N)=O)[C@@H](C)O)NC(=O)[C@H](CCCNC(=N)N)NC(=O)[C@H](Cc2c[nH]cn2)NC(=O)[C@H](CC(=O)O)NC(=O)CNC(=O)[C@H](Cc2c[nH]c3ccccc23)NC(=O)[C@H](CC(=O)O)NC(=O)[C@H](CCC(N)=O)NC(=O)[C@H](Cc2c[nH]c3ccccc23)NC(=O)[C@H]([C@@H](C)CC)NC1=O [Compound 17] (Ac-ICIWQDWGDHRCT-NH2; disulfide 2-12)	< 0.1
CC[C@H](C)[C@H](NC(=O)[C@H](C)NC(=O)[C@H](CO)NC(=O)CNC(=O)[C@H](CCC(=O)O)NC(C)=O)C(=O)N[C@H]1CSSC[C@@H](C(=O)N[C@H](C(=O)N[C@@H](CCC(=O)O)C(=O)NCC(=O)N[C@@H](CCCCNC(=O)CC[C@H](NC(=O)CCCCCCCCCCCCCCC(=O)O)C(=O)O)C(N)=O)[C@@H](C)O)NC(=O)[C@H](CCCNC(=N)N)NC(=O)[C@H](Cc2c[nH]cn2)NC(=O)[C@H](CCC(=O)O)NC(=O)CNC(=O)[C@H](Cc2c[nH]c3ccccc23)NC(=O)[C@H](CC(=O)O)NC(=O)[C@H](CCC(N)=O)NC(=O)[C@H](Cc2c[nH]c3ccccc23)NC(=O)[C@H]([C@@H](C)CC)NC1=O [Compound 101] (Ac-EGSAICIWQDWGEHRCTEGK([γGlu-C16 diacid])-NH2; disulfide 6-16)	< 0.5
CC[C@H](C)[C@@H]1NC(=O)[C@@H](NC(=O)[C@H](Cc2ccccc2)NC(=O)[C@H](CCC(=O)O)NC(=O)[C@H](CO)NC(C)=O)CSSC[C@@H](C(=O)N(C)CC(=O)N[C@@H](CCC(=O)O)C(=O)NCC(=O)N[C@@H](CCC(=O)O)C(=O)NCCOCCOCC(=O)NCCOCCOCC(=O)NCCOCCOCC(=O)N[C@@H](CCCCNC(=O)CC[C@H](NC(=O)CNC(=O)CC[C@H](NC(=O)CCCCCCCCCCCCCCCCC(=O)O)C(=O)O)C(=O)O)C(N)=O)NC(=O)[C@H](CCCNC(=N)N)NC(=O)[C@H](Cc2c[nH]cn2)NC(=O)[C@H](CCC(=O)O)NC(=O)CNC(=O)[C@H](Cc2c[nH]c3ccccc23)NC(=O)[C@H](CC(=O)O)NC(=O)[C@H](CCC(N)=O)NC(=O)[C@H](Cc2cn(C)c3ccccc23)NC1=O [Compound 143] (Ac-SEFCI[Trp(1-Me)]QDWGEHRC[Sar]EGE[AEEA][AEEA][AEEA]K([γGlu-Gly-γGlu-C18 diacid])-NH2; disulfide 4-14)	< 0.1
CC[C@H](C)[C@H](NC(C)=O)C(=O)N[C@H]1CSSC[C@@H](C(=O)N[C@H](C(N)=O)[C@@H](C)O)NC(=O)[C@H](CCCNC(=N)N)NC(=O)[C@H](Cc2c[nH]cn2)NC(=O)[C@H](C)NC(=O)CNC(=O)[C@H](Cc2c[nH]c3ccccc23)NC(=O)[C@H](CC(=O)O)NC(=O)[C@H](CCC(N)=O)NC(=O)[C@H](Cc2c[nH]c3ccccc23)NC(=O)[C@H](C(C)C)NC1=O [Compound 4W9A, reference compound]	< 0.5
CC[C@H](C)[C@@H]1NC(=O)[C@@H](NC(=O)[C@H](Cc2ccccc2)NC(C)=O)CSSC[C@@H](C(=O)N[C@H](C(=O)NCC(=O)N[C@@H](C)C(=O)N[C@@H](CCC(=O)O)C(N)=O)[C@@H](C)O)NC(=O)[C@H](CCCNC(=N)N)NC(=O)[C@H](Cc2c[nH]cn2)NC(=O)[C@H](CCC(=O)O)NC(=O)CNC(=O)[C@H](Cc2c[nH]c3ccccc23)NC(=O)[C@H](CC(=O)O)NC(=O)[C@H](CCC(N)=O)NC(=O)[C@H](Cc2c[nH]c3ccccc23)NC1=O [Compound 43] (Ac-FCIWQDWGEHRCTGAE-NH2; disulfide 2-12)	< 0.1
CC[C@H](C)[C@@H]1NC(=O)[C@@H](NC(=O)[C@H](Cc2ccccc2)NC(=O)[C@H](CCC(=O)O)NC(=O)[C@H](CO)NC(C)=O)CCSC[C@@H](C(=O)N[C@H](C(=O)N[C@@H](CCC(=O)O)C(=O)NCC(=O)N[C@@H](CCC(=O)O)C(=O)NCCOCCOCC(=O)N[C@@H](CCC(=O)O)C(=O)N[C@@H](CO)C(=O)N[C@@H](CCCCNC(=O)CC[C@H](NC(=O)CCCCCCCCCCCCCCCCC(=O)O)C(=O)O)C(N)=O)[C@@H](C)O)NC(=O)[C@H](CCCNC(=N)N)NC(=O)[C@H](Cc2c[nH]cn2)NC(=O)[C@H](CCC(=O)O)NC(=O)CNC(=O)[C@H](Cc2c[nH]c3ccccc23)NC(=O)[C@H](CC(=O)O)NC(=O)[C@H](CCC(N)=O)NC(=O)[C@H](Cc2cn(C)c3ccccc23)NC1=O [Compound 165] (Ac-SEF[Abu(4-yl)]I[Trp(1-Me)]QDWGEHRCTEGE[AEEA]ESK([γGlu-C18 diacid])-NH2; thioether 4-14)	< 0.25
CC[C@H](C)[C@@H]1NC(=O)[C@@H](NC(=O)[C@H](Cc2ccccc2)NC(=O)[C@H](CCC(=O)O)NC(=O)[C@H](CO)NC(C)=O)CCSC[C@@H](C(=O)N(C)CC(=O)N[C@@H](CCC(=O)O)C(=O)NCCOCCOCC(=O)NCCOCCOCC(=O)N[C@@H](CCCCNC(=O)CC[C@H](NC(=O)CNC(=O)CC[C@H](NC(=O)CCCCCCCCCCCCCCCCC(=O)O)C(=O)O)C(=O)O)C(N)=O)NC(=O)[C@H](CCCNC(=N)N)NC(=O)[C@H](Cc2c[nH]cn2)NC(=O)[C@H](CCC(=O)O)NC(=O)CN(C)C(=O)[C@H](Cc2c[nH]c3ccccc23)NC(=O)[C@H](CC(=O)O)NC(=O)[C@H](CCC(N)=O)NC(=O)[C@H](Cc2cn(C)c3ccccc23)NC1=O [Compound 164, Ac-SEFhC(1)I[1-Me-Trpp]QDW[Sar]EHRA(1)[Sar]E[Peg3][Peg3]-K([17-carboxy-heptadecanoyl][γGlu]G[γGlu])-NH2] (Ac-SEF[Abu(4-yl)]I[Trp(1-Me)]QDW[Sar]EHRC[Sar]E[AEEA][AEEA]K([γGlu-Gly-γGlu-C18 diacid])-NH2; thioether 4-14)	< 0.1
CC[C@H](C)[C@@H]1NC(=O)[C@@H](NC(=O)[C@H](Cc2ccccc2)NC(=O)[C@H](CCC(=O)O)NC(=O)[C@H](CO)NC(C)=O)CSCC[C@@H](C(=O)N(C)CC(=O)N[C@@H](CCC(=O)O)C(=O)NCCOCCOCC(=O)NCCOCCOCC(=O)N[C@@H](CCCCNC(=O)CC[C@H](NC(=O)CNC(=O)CC[C@H](NC(=O)CCCCCCCCCCCCCCCCC(=O)O)C(=O)O)C(=O)O)C(=O)O)NC(=O)[C@H](CCCNC(=N)N)NC(=O)[C@H](Cc2c[nH]cn2)NC(=O)[C@H](CCC(=O)O)NC(=O)CN(C)C(=O)[C@H](Cc2c[nH]c3ccccc23)NC(=O)[C@H](CC(=O)O)NC(=O)[C@H](CCC(N)=O)NC(=O)[C@H](Cc2cn(C)c3ccccc23)NC1=O [Compound 162, Ac-SEFA(1)I[1-Me-Trp]QDW[Sar]EHRhC(1)[Sar]E[Peg3][Peg3]-K([17-carboxy-heptadecanoyl][γGlu]G[γGlu])-OH] (Ac-SEFCI[Trp(1-Me)]QDW[Sar]EHR[Abu(4-yl)][Sar]E[AEEA][AEEA]K([γGlu-Gly-γGlu-C18 diacid])-OH; thioether 4-14)	< 0.1
CC[C@H](C)[C@@H]1NC(=O)[C@@H](NC(=O)[C@H](Cc2ccc(O)cc2)NC(=O)[C@H](CCC(=O)O)NC(=O)[C@H](CO)NC(C)=O)CSSC[C@@H](C(=O)N(C)CC(=O)N[C@@H](CCC(=O)O)C(=O)NCC(=O)N[C@@H](CCC(=O)O)C(=O)NCCOCCOCC(=O)NCCOCCOCC(=O)N[C@@H](CCCCNC(=O)CC[C@H](NC(=O)CNC(=O)CC[C@H](NC(=O)CCCCCCCCCCCCCCCCC(=O)O)C(=O)O)C(=O)O)C(N)=O)NC(=O)[C@H](CCCNC(=N)N)NC(=O)[C@H](Cc2c[nH]cn2)NC(=O)[C@H](CCC(=O)O)NC(=O)CNC(=O)[C@H](Cc2c[nH]c3ccccc23)NC(=O)[C@H](CCC(=O)O)NC(=O)[C@H](CCC(N)=O)NC(=O)[C@H](Cc2cn(C)c3ccccc23)NC1=O [Compound 125] (Ac-SEYCI[Trp(1-Me)]QEWGEHRC[Sar]EGE[AEEA][AEEA]K([γGlu-Gly-γGlu-C18 diacid])-NH2; disulfide 4-14)	< 0.5

same assay, conditions: Table 5; different residues at position 3 of Ac-IC(1)XWQDWGEHRC(1)T-NH2; read-out: IC50, CP hemolysis

SMILES	IC50 [µM]
N[C@@H](Cc1ccccc1)C(=O)O [Phenylalanine, reference compound]	> 10
